Data taken from PubChem BioAssay AID1845215 (Molecular Pharmacology Branch, DTP, NCI, 2023).

Tested on: SW 1271 complex tumor spheroid viability
Experiment: Anticancer human tumor SW 1271 cell line growth inhibition;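 further: spheroids exposed to agents for seven days before readout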;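 on viability, T/C: percent of DMSO vehicle control luminescence so 100% = vehicle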
Conditions: for viability, T/C: stronger effect = lower value; active means viability on the fitted dose curve at most 10% of control; inactive means the rest
From the text: Multicellular complex tumor spheroid response to DNA repair inhibitors in combination with DNA-damaging drugs
This study explores the anticancer activities of DNA-damaging drugs and inhibitors of DNA damage repair, both as single agents and in combinations. Complex tumor spheroids comprised of malignant cells, endothelial cells and mesenchymal stem cells served as an in vitro model for human solid tumors. This model system incorporates physiologically relevant features and patient-derived or established malignant cell lines with clinically relevant genetic alterations from many tumor types. Twenty-six patient-derived or established malignant cell lines were evaluated representing sarcoma, melanoma, small cell lung cancer (SCLC), non-small cell lung cancer (NSCLC), as well as bladder, ovarian and pancreatic cancers. The concentration ranges selected for each drug and investigational agent were based upon clinically achievable concentrations if the clinical Cmax of the agent was known.
Compounds. The drugs and compounds olaparib (NSC753686), talazoparib (NSC767125), berzosertib (NSC777718), elimusertib (NSC800525), nedisertib (NSC802822), VX-984 (NSC792969), AZD-1390 (NSC803789), temozolomide (NSC362856), topotecan (NSC609699), trabectedin (NSC813783), staurosporine (NSC755774), and gemcitabine (NSC613327) were obtained from the National Cancer Institute (NCI) Developmental Therapeutics Program Chemical Repository. The FDA-approved anticancer drug set is available from the Developmental Therapeutics Program at https://dtp.cancer.gov/organization/dscb/obtaining/available_plates.htm. […] The stock solutions were prepared in dimethyl sulfoxide (DMSO, Sigma-Aldrich, St. Louis, MO, cat. D2650) at 400-fold the tested concentration and stored at -70 degrees C. Prior to their use, the stock solutions were diluted in fresh medium and the final DMSO concentration in the assay was 0.25% (v/v). All drugs and investigational agents were tested over a range starting from a high concentration at or near the clinical Cmax and decreasing in half-log increments. If the clinical Cmax for an agent had not been determined, the highest concentration tested was 10 microM.
Cell Lines. The patient-derived cancer cell (PDC) lines: 156681-154-R-J1-PDC, 283228-195-R-J1-PDC, 287954-098-R-J1-PDC, 292921-168-R-J2-PDC, 349418-098-R-PDC, 425362-245-T-J1-PDC, 556581-035-R-J1-PDC, and BL0293-F563-PDC were received from the NCI Patient-Derived Models Repository (PDMR, https://pdmr.cancer.gov). The established cell lines HS-SY-2 (RRID:CVCL_8719), MPNST, and SYO-1 (RRID:CVCL_7146) were obtained from the Sloan Kettering Institute. The alveolar soft parts sarcoma cell line ASPS-1 (RRID:CVCL_S738) was established at the NCI and grown from internal seed stocks. The following established cell lines were purchased from the American Type Culture Collection (ATCC, Manassas, VA): G-401 (ATCC, cat. CRL-1441, RRID:CVCL_0270), SW982 (ATCC, cat. HTB-93, RRID:CVCL_1734), VA-ES-BJ (ATCC, cat. CRL-2138, RRID:CVCL_1785), NCI-H719 (ATCC, cat. CRL-5837, RRID:CVCL_1582), NCI-H196 (ATCC, cat. CRL-5823, RRID:CVCL_1509), NCI-H841 (ATCC, cat. CRL-5845, RRID:CVCL_1595), NCI-H1618 (ATCC, cat. CRL-5879, RRID:CVCL_1480), NCI-H1876 (ATCC, cat. CRL-5902, RRID:CVCL_1503), DMS 114 (ATCC, cat. CRL-2066; RRID:CVCL_1174), NCI-H211 (ATCC, cat. CRL-5824; RRID:CVCL_1529), and SW 1271 (ATCC, cat. CRL-2177, RRID:CVCL_1716). The small cell lung cancer cell line COR-L88 was purchased from Sigma-Aldrich (cat. 92031917-1VL, RRID:CVCL_1141). The non-small cell lung cancer cell lines NCI-H226 (RRID:CVCL_1544) and NCI-H322M (RRID:CVCL_1557) were established at the NCI and grown from internal seed stocks. Pooled donor human umbilical vein endothelial cells (HUVEC, Lonza, cat. CC-2519) and human mesenchymal stem cells (hMSC, Lonza, cat. PT-2501) were purchased from Lonza (Walkersville, MD).
Cell Culture. All cells were maintained in an incubator at 37 degrees C and 5% CO2 with 95% humidity. […]

[1] = curve of first compound, second compound 1 µM
[2] = curve of first compound, second compound 3.16 µM
[3] = curve of first compound, second compound 10 µM
[4] = curve of first compound, second compound 31.6 µM
[5] = curve of first compound, second compound 100 µM

Cc1cc(C)c(CNC(=O)c2cc(-c3ccc(CN4CCOCC4)cc3)cc3c2cnn3C2CCCC2)c(=O)[nH]1 + Cn1nnc2c(C(N)=O)ncn2c1=O
inactive: viability, T/C (second compound 1 µM, first compound 0.0316 µM) 98.6% | viability, T/C (second compound 1 µM, first compound 0.1 µM) 92.6% | viability, T/C (second compound 1 µM, first compound 0.316 µM) 93.5% | viability, T/C (second compound 1 µM, first compound 1 µM) 91.5% | viability, T/C (second compound 1 µM, first compound 3.16 µM) 88.7% | viability, T/C (second compound 1 µM, first compound 10 µM) 73.1% | viability, T/C (second compound 3.16 µM, first compound 0.0316 µM) 93.7% | viability, T/C (second compound 3.16 µM, first compound 0.1 µM) 101% | viability, T/C (second compound 3.16 µM, first compound 0.316 µM) 95.3% | viability, T/C (second compound 3.16 µM, first compound 1 µM) 99.2% | viability, T/C (second compound 3.16 µM, first compound 3.16 µM) 83.9% | viability, T/C (second compound 3.16 µM, first compound 10 µM) 79.1% | viability, T/C (second compound 10 µM, first compound 0.0316 µM) 97.7% | viability, T/C (second compound 10 µM, first compound 0.1 µM) 91.7% | viability, T/C (second compound 10 µM, first compound 0.316 µM) 98.8% | viability, T/C (second compound 10 µM, first compound 1 µM) 96.7% | viability, T/C (second compound 10 µM, first compound 3.16 µM) 81.5% | viability, T/C (second compound 10 µM, first compound 10 µM) 76.2% | viability, T/C (second compound 31.6 µM, first compound 0.0316 µM) 106% | viability, T/C (second compound 31.6 µM, first compound 0.1 µM) 103% | viability, T/C (second compound 31.6 µM, first compound 0.316 µM) 102% | viability, T/C (second compound 31.6 µM, first compound 1 µM) 100% | viability, T/C (second compound 31.6 µM, first compound 3.16 µM) 74.5% | viability, T/C (second compound 31.6 µM, first compound 10 µM) 62% | viability, T/C (second compound 100 µM, first compound 0.0316 µM) 91.8% | viability, T/C (second compound 100 µM, first compound 0.1 µM) 90.4% | viability, T/C (second compound 100 µM, first compound 0.316 µM) 79.8% | viability, T/C (second compound 100 µM, first compound 1 µM) 81.7% | viability, T/C (second compound 100 µM, first compound 3.16 µM) 70.7% | viability, T/C (second compound 100 µM, first compound 10 µM) 52.7%
> 10000 nM: IC50 [1] | IC50 [2] | IC50 [3] | IC50 [4] | IC50 [5]

CC[C@@]1(O)C(=O)OCc2c1cc1n(c2=O)Cc2cc3c(CN(C)C)c(O)ccc3nc2-1
8.96 nM [middle of 5 runs]: IC50 (compound alone, run of 11/07/2019)
inactive: viability, T/C (compound 0.003 µM) 88.3% [middle of 10 runs] | viability, T/C (compound 0.03 µM) 28.2% [middle of 10 runs] | viability, T/C (compound 0.0949 µM) 27.2% [middle of 10 runs] | viability, T/C (compound 0.3 µM) 16.7% [middle of 10 runs]
11.7 nM [middle of 5 runs]: IC50 (compound alone, run of 12/16/2019)

Cc1sc2c(c1C)C(c1ccc(Cl)cc1)=NC(CC(=O)Nc1ccc(O)cc1)c1nnc(C)n1-2 (stereo unspecified) + Cn1nnc2c(C(N)=O)ncn2c1=O
54.2 nM: IC50 [5]
77.9 nM: IC50 [3]
70.1 nM: IC50 [4]
inactive: viability, T/C (second compound 1 µM, first compound 0.00949 µM) 118% | viability, T/C (second compound 1 µM, first compound 0.03 µM) 100% | viability, T/C (second compound 1 µM, first compound 0.0949 µM) 30.9% | viability, T/C (second compound 3.16 µM, first compound 0.00949 µM) 107% | viability, T/C (second compound 3.16 µM, first compound 0.03 µM) 110% | viability, T/C (second compound 3.16 µM, first compound 0.0949 µM) 44.2% | viability, T/C (second compound 10 µM, first compound 0.00949 µM) 116% | viability, T/C (second compound 10 µM, first compound 0.03 µM) 110% | viability, T/C (second compound 10 µM, first compound 0.0949 µM) 37.5% | viability, T/C (second compound 31.6 µM, first compound 0.00949 µM) 104% | viability, T/C (second compound 31.6 µM, first compound 0.03 µM) 96.5% | viability, T/C (second compound 31.6 µM, first compound 0.0949 µM) 33.5% | viability, T/C (second compound 100 µM, first compound 0.00949 µM) 96.8% | viability, T/C (second compound 100 µM, first compound 0.03 µM) 77.6% | viability, T/C (second compound 100 µM, first compound 0.0949 µM) 24%
active: viability, T/C (second compound 1 µM, first compound 0.3 µM) 3.27% | viability, T/C (second compound 1 µM, first compound 0.949 µM) 1.29% | viability, T/C (second compound 1 µM, first compound 3 µM) 1.13% | viability, T/C (second compound 3.16 µM, first compound 0.3 µM) 2.74% | viability, T/C (second compound 3.16 µM, first compound 0.949 µM) 1.12% | viability, T/C (second compound 3.16 µM, first compound 3 µM) 1.25% | viability, T/C (second compound 10 µM, first compound 0.3 µM) 3.68% | viability, T/C (second compound 10 µM, first compound 0.949 µM) 1.21% | viability, T/C (second compound 10 µM, first compound 3 µM) 1.48% | viability, T/C (second compound 31.6 µM, first compound 0.3 µM) 3.27% | viability, T/C (second compound 31.6 µM, first compound 0.949 µM) 1.04% | viability, T/C (second compound 31.6 µM, first compound 3 µM) 0.93% | viability, T/C (second compound 100 µM, first compound 0.3 µM) 2.27% | viability, T/C (second compound 100 µM, first compound 0.949 µM) 1.7% | viability, T/C (second compound 100 µM, first compound 3 µM) 0.96%
69 nM: IC50 [1]
85.4 nM: IC50 [2]
